Holding throughout (assay): relative viability (nuclei count vs DMSO), 5 days (fraction); higher = more cells survive
Compound in assay [1]: C1CNCCC1C2=CC(=NN2)C3=CC=NC=C3 + COc1cccc2cc(-c3nc([C@H]4CC[C@H](C(=O)O)CC4)n4ncnc(N)c34)[nH]c12 [OSI-027] (partner 0.5 µM)
The gist of the method:
(§1)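 Lung cancer cell lines were pin-tool dosed in 1536-well plates on the day after seeding, with either a lone drug or a fixed anchor-drug dose plus five library-drug doses (not always all listed) in √10 steps. Nuclei were counted on 4× images after 5 days. Relative viability is the ratio of treated-well to vehicle-well nuclei counts, with each value a median of duplicate plates.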

Compound in assay [2]: C[C@@H](N)c1ccc(C(=O)Nc2ccnc3[nH]ccc23)cc1 + Nc1ncn([C@H]2C[C@H](O)[C@@H](CO)O2)c(=O)n1 [Decitabine] (partner 2 µM)
The gist of the method: as §1

Compound in the assay “Tanzisertib + Foretinib”: O[C@H]1CC[C@H](Nc2ncc3nc(Nc4c(F)cc(F)cc4F)n([C@H]4CCOC4)c3n2)CC1 [Tanzisertib] + COc1cc2c(Oc3ccc(NC(=O)C4(C(=O)Nc5ccc(F)cc5)CC4)cc3F)ccnc2cc1OCCCN1CCOCC1 [Foretinib] (partner 0.25 µM)
The gist of the method:
as §1

Compound in assay [3]: C1CNCCC1C2=CC(=NN2)C3=CC=NC=C3 + Nc1ncn([C@H]2C[C@H](O)[C@@H](CO)O2)c(=O)n1 [Decitabine] (partner 2 µM)
A digest of the protocol:
as §1

As to ChaGo-K-1, the relative viability in assay [1] (first compound 0.08 µM) worked out at 0.559; in assay [1] (first compound 0.8 µM), 0.557; in assay [1] (first compound 2.53 µM), 0.589; in assay [1] (first compound 8 µM) it was 0.575; in assay [2] (first compound 0.04 µM), 0.569; in assay [2] (first compound 0.1265 µM), 0.526. The relative viability in assay [2] (first compound 0.4 µM) was determined as 0.548; in assay [2] (first compound 1.265 µM), 0.529; in assay [2] (first compound 4 µM) it was 0.456; with Tanzisertib + Foretinib (first compound 0.08 µM), 0.969; with Tanzisertib + Foretinib (first compound 0.253 µM), 0.982; in the assay with Tanzisertib + Foretinib (first compound 0.8 µM) it was 0.861. Besides, the relative viability was 0.94 with Tanzisertib + Foretinib (first compound 2.53 µM); 0.891 with Tanzisertib + Foretinib (first compound 8 µM); 0.496 in assay [3] (first compound 0.08 µM); 0.525 in assay [3] (first compound 0.8 µM); 0.506 in assay [3] (first compound 2.53 µM); 0.529 in assay [3] (first compound 8 µM).
Consider EBC-1, for which the relative viability was 0.102 with Tanzisertib + Foretinib (first compound 0.08 µM); 0.093 with Tanzisertib + Foretinib (first compound 0.253 µM); 0.104 with Tanzisertib + Foretinib (first compound 0.8 µM); 0.117 with Tanzisertib + Foretinib (first compound 2.53 µM); 0.109 with Tanzisertib + Foretinib (first compound 8 µM).
As to EKVX, the relative viability in assay [1] (first compound 0.08 µM) came to 0.646; in assay [1] (first compound 0.8 µM), 0.72; in assay [1] (first compound 2.53 µM) it was 0.734; in assay [1] (first compound 8 µM), 0.718; in assay [2] (first compound 0.04 µM) it was 0.385; in assay [2] (first compound 0.1265 µM) it was 0.331. In addition, the relative viability was found to be 0.358 in assay [2] (first compound 0.4 µM); 0.329 in assay [2] (first compound 1.265 µM); 0.385 in assay [2] (first compound 4 µM); 1.08 with Tanzisertib + Foretinib (first compound 0.08 µM); 0.681 in the assay with Tanzisertib + Foretinib (first compound 0.253 µM); 0.759 with Tanzisertib + Foretinib (first compound 0.8 µM). Also, the relative viability came to 0.872 with Tanzisertib + Foretinib (first compound 2.53 µM); 0.497 with Tanzisertib + Foretinib (first compound 8 µM); 0.291 in assay [3] (first compound 0.08 µM); 0.318 in assay [3] (first compound 2.53 µM); 0.323 in assay [3] (first compound 8 µM).
On to EMC-BAC-2, for which the relative viability in assay [1] (first compound 0.08 µM) came out at 0.379; in assay [1] (first compound 0.8 µM) it was 0.368; in assay [1] (first compound 2.53 µM), 0.421; in assay [1] (first compound 8 µM), 0.368; in assay [2] (first compound 0.04 µM) it was 1; in assay [2] (first compound 0.1265 µM), 0.968. Also, the relative viability in assay [2] (first compound 0.4 µM) was determined as 1.11; in assay [2] (first compound 1.265 µM), 1.04; in assay [2] (first compound 4 µM) it was 0.903; in the assay with Tanzisertib + Foretinib (first compound 0.08 µM), 1.04; with Tanzisertib + Foretinib (first compound 0.253 µM), 0.937; in the assay with Tanzisertib + Foretinib (first compound 0.8 µM), 0.988. Moreover, the relative viability in the assay with Tanzisertib + Foretinib (first compound 2.53 µM) is 0.969; with Tanzisertib + Foretinib (first compound 8 µM), 0.966; in assay [3] (first compound 0.8 µM), 1.06; in assay [3] (first compound 2.53 µM), 1; in assay [3] (first compound 8 µM), 1.03.
HCC-44: the relative viability was 0.47 in assay [1] (first compound 0.08 µM); 0.71 in assay [1] (first compound 0.8 µM); 0.627 in assay [1] (first compound 2.53 µM); 0.787 in assay [1] (first compound 8 µM); 0.862 in assay [2] (first compound 0.04 µM); 0.981 in assay [2] (first compound 0.1265 µM). Besides, the relative viability was 0.971 in assay [2] (first compound 0.4 µM); 0.893 in assay [2] (first compound 1.265 µM); 0.92 in assay [2] (first compound 4 µM); 0.957 in assay [3] (first compound 0.08 µM); 0.989 in assay [3] (first compound 0.8 µM); 0.961 in assay [3] (first compound 2.53 µM). In addition, the relative viability in assay [3] (first compound 8 µM) amounted to 0.942.
Consider IA-LM, for which the relative viability stood at 1.02 with Tanzisertib + Foretinib (first compound 0.08 µM); 1.28 with Tanzisertib + Foretinib (first compound 0.253 µM); 1.04 with Tanzisertib + Foretinib (first compound 0.8 µM); 1.28 with Tanzisertib + Foretinib (first compound 2.53 µM); 1.09 in the assay with Tanzisertib + Foretinib (first compound 8 µM).
NCI-H522: the relative viability in assay [1] (first compound 0.08 µM) turned out to be 0.731; in assay [1] (first compound 0.8 µM), 0.813; in assay [1] (first compound 2.53 µM), 0.693; in assay [1] (first compound 8 µM) it was 0.709; in assay [2] (first compound 0.04 µM), 0.704; in assay [2] (first compound 0.1265 µM) it was 0.683. The relative viability in assay [2] (first compound 0.4 µM) was 0.727; in assay [2] (first compound 1.265 µM) it was 0.694; in assay [2] (first compound 4 µM) it was 0.715; in assay [3] (first compound 0.08 µM), 0.619; in assay [3] (first compound 0.8 µM) it was 0.646; in assay [3] (first compound 2.53 µM), 0.552. Also, the relative viability in assay [3] (first compound 8 µM) was found to be 0.789.
On to NCI-H1299, for which the relative viability with Tanzisertib + Foretinib (first compound 0.08 µM) was found to be 1.08; in the assay with Tanzisertib + Foretinib (first compound 0.253 µM), 1.1; with Tanzisertib + Foretinib (first compound 0.8 µM), 1.09; with Tanzisertib + Foretinib (first compound 2.53 µM), 1.15; with Tanzisertib + Foretinib (first compound 8 µM), 1.23.
Consider NCI-H1563, for which the relative viability is 0.74 in assay [1] (first compound 0.08 µM); 0.771 in assay [1] (first compound 0.8 µM); 0.749 in assay [1] (first compound 2.53 µM); 0.769 in assay [1] (first compound 8 µM); 0.983 with Tanzisertib + Foretinib (first compound 0.08 µM); 0.854 with Tanzisertib + Foretinib (first compound 0.253 µM). Moreover, the relative viability with Tanzisertib + Foretinib (first compound 0.8 µM) stood at 0.896; with Tanzisertib + Foretinib (first compound 2.53 µM), 0.96; in the assay with Tanzisertib + Foretinib (first compound 8 µM), 0.72.
As for NCI-H1623, the relative viability in assay [1] (first compound 0.08 µM) turned out to be 0.451; in assay [1] (first compound 0.8 µM) it was 0.504; in assay [1] (first compound 2.53 µM), 0.488; in assay [1] (first compound 8 µM), 0.42; with Tanzisertib + Foretinib (first compound 0.08 µM), 0.956; in the assay with Tanzisertib + Foretinib (first compound 0.253 µM), 0.815. Also, the relative viability with Tanzisertib + Foretinib (first compound 0.8 µM) is 0.912; with Tanzisertib + Foretinib (first compound 2.53 µM), 0.834; with Tanzisertib + Foretinib (first compound 8 µM), 0.788.
For NCI-H1648, the relative viability in assay [1] (first compound 0.08 µM) stood at 0.242; in assay [1] (first compound 0.8 µM), 0.271; in assay [1] (first compound 2.53 µM), 0.292; in assay [1] (first compound 8 µM) it was 0.245; in assay [2] (first compound 0.04 µM) it was 0.746; in assay [2] (first compound 0.1265 µM), 0.545. Moreover, the relative viability in assay [2] (first compound 0.4 µM) was found to be 0.762; in assay [2] (first compound 1.265 µM), 0.754; in assay [2] (first compound 4 µM), 0.815; in assay [3] (first compound 0.08 µM), 0.453; in assay [3] (first compound 0.8 µM) it was 0.572; in assay [3] (first compound 8 µM), 0.573.
For NCI-H1703, the relative viability with Tanzisertib + Foretinib (first compound 0.08 µM) is 0.406; with Tanzisertib + Foretinib (first compound 0.253 µM), 0.371; with Tanzisertib + Foretinib (first compound 0.8 µM), 0.359; with Tanzisertib + Foretinib (first compound 2.53 µM) it was 0.262; with Tanzisertib + Foretinib (first compound 8 µM), 0.261.
For the cell line NCI-H1792, the relative viability in assay [1] (first compound 0.08 µM) is 0.74; in assay [1] (first compound 0.8 µM) it was 0.766; in assay [1] (first compound 2.53 µM) it was 0.706; in assay [1] (first compound 8 µM) it was 0.749; in assay [2] (first compound 0.04 µM), 0.571; in assay [2] (first compound 0.1265 µM), 0.558. Moreover, the relative viability is 0.489 in assay [2] (first compound 0.4 µM); 0.675 in assay [2] (first compound 1.265 µM); 0.462 in assay [2] (first compound 4 µM); 0.553 in assay [3] (first compound 0.08 µM); 0.398 in assay [3] (first compound 0.8 µM); 0.551 in assay [3] (first compound 2.53 µM). Also, the relative viability in assay [3] (first compound 8 µM) worked out at 0.514.
As to NCI-H2228, the relative viability came out at 0.61 in assay [1] (first compound 0.08 µM); 0.653 in assay [1] (first compound 0.8 µM); 0.649 in assay [1] (first compound 2.53 µM); 0.689 in assay [1] (first compound 8 µM); 0.961 with Tanzisertib + Foretinib (first compound 0.08 µM); 0.869 in the assay with Tanzisertib + Foretinib (first compound 0.253 µM). Moreover, the relative viability in the assay with Tanzisertib + Foretinib (first compound 0.8 µM) was 0.928; with Tanzisertib + Foretinib (first compound 2.53 µM), 0.733; with Tanzisertib + Foretinib (first compound 8 µM) it was 0.68.

These data come from the supplement of paper PMC10307832.
